This is an account of results in PubChem BioAssay AID1259407 (Chemical Carcinogenesis Research Information System (CCRIS), 2018).

Each structure is given as a SMILES string. Activity calls are given as the source filed them. No rule for the calls is given here.

The series has as its system CCRIS mutagenicity, Ames/micronucleus/aberration tests. Nature of the series: CCRIS mutagenicity studies.
[1] abbreviates: Test System: AMES SALMONELLA TYPHIMURIUM, Strain/Indicator: TA97A, Metabolic Activation: NONE, Method: STANDARD PLATE.
Setting [2] is: Test System: AMES SALMONELLA TYPHIMURIUM, Strain/Indicator: TA98, Metabolic Activation: NONE, Method: STANDARD PLATE.
The mark [3] stands for this setting: Test System: AMES SALMONELLA TYPHIMURIUM, Strain/Indicator: TA100, Metabolic Activation: NONE, Method: STANDARD PLATE.
The mark [4] stands for this setting: Test System: AMES SALMONELLA TYPHIMURIUM, Strain/Indicator: TA98, Metabolic Activation: RAT, LIVER, S-9, AROCLOR 1254, Method: STANDARD PLATE.
Setting [5] is: Test System: AMES SALMONELLA TYPHIMURIUM, Strain/Indicator: TA100, Metabolic Activation: RAT, LIVER, S-9, AROCLOR 1254, Method: STANDARD PLATE.
[6] abbreviates: Test System: AMES SALMONELLA TYPHIMURIUM, Strain/Indicator: TA1535, Metabolic Activation: RAT, LIVER, S-9, AROCLOR 1254, Method: STANDARD PLATE.
Setting [7] is: Test System: AMES SALMONELLA TYPHIMURIUM, Strain/Indicator: TA1538, Metabolic Activation: RAT, LIVER, S-9, AROCLOR 1254, Method: STANDARD PLATE.
The mark [8] stands for this setting: Test System: AMES SALMONELLA TYPHIMURIUM, Strain/Indicator: TA1535, Metabolic Activation: NONE, Method: STANDARD PLATE.
The mark [9] stands for this setting: Test System: AMES SALMONELLA TYPHIMURIUM, Strain/Indicator: TA1538, Metabolic Activation: NONE, Method: STANDARD PLATE.

Regarding `Cc1ccc(C)c(C)c1C`, the mutagenic call is “inactive; negative” under setting [1]; “inactive; negative” (Test System: AMES SALMONELLA TYPHIMURIUM, Strain/Indicator: TA97A, Metabolic Activation: RAT LIVER S-9, AROCLOR 1254, Method: STANDARD PLATE); “inactive; negative” under setting [2]; “inactive; negative” (Test System: AMES SALMONELLA TYPHIMURIUM, Strain/Indicator: TA98, Metabolic Activation: RAT LIVER S-9, AROCLOR 1254, Method: STANDARD PLATE); “inactive; negative” under setting [3]; “inactive; negative” (Test System: AMES SALMONELLA TYPHIMURIUM, Strain/Indicator: TA100, Metabolic Activation: RAT LIVER S-9, AROCLOR 1254, Method: STANDARD PLATE). Further, the mutagenic call is “inactive; negative” (Test System: AMES SALMONELLA TYPHIMURIUM, Strain/Indicator: TA102, Metabolic Activation: NONE, Method: STANDARD PLATE) and “inactive; negative” (Test System: AMES SALMONELLA TYPHIMURIUM, Strain/Indicator: TA102, Metabolic Activation: RAT LIVER S-9, AROCLOR 1254, Method: STANDARD PLATE).

As for `O=C(COc1ccc(Cl)cc1Cl)N[C@@H](Cc1c[nH]c2ccccc12)C(=O)O`, the mutagenic call (Test System: AMES SALMONELLA TYPHIMURIUM, Strain/Indicator: TA97, Metabolic Activation: RAT, LIVER, S-9, AROCLOR 1254, Method: STANDARD PLATE) was “inactive; negative”; the mutagenic call (Test System: AMES SALMONELLA TYPHIMURIUM, Strain/Indicator: TA97, Metabolic Activation: WOODCHUCK, LIVER, S-9, 3-METHYLCHOLANTHRENE, Method: STANDARD PLATE) is “inactive; negative”; the mutagenic call under setting [4] is “inactive; negative”; the mutagenic call (Test System: AMES SALMONELLA TYPHIMURIUM, Strain/Indicator: TA98, Metabolic Activation: WOODCHUCK, LIVER, S-9, 3-METHYLCHOLANTHRENE, Method: STANDARD PLATE) is “inactive; negative”; the mutagenic call under setting [5] is “inactive; negative”; the mutagenic call (Test System: AMES SALMONELLA TYPHIMURIUM, Strain/Indicator: TA100, Metabolic Activation: WOODCHUCK, LIVER, S-9, 3-METHYLCHOLANTHRENE, Method: STANDARD PLATE) was “inactive; negative”. The mutagenic call is “inactive; negative” under setting [6]; “inactive; negative” (Test System: AMES SALMONELLA TYPHIMURIUM, Strain/Indicator: TA1535, Metabolic Activation: WOODCHUCK, LIVER, S-9, 3-METHYLCHOLANTHRENE, Method: STANDARD PLATE); “inactive; negative” under setting [7]; “inactive; negative” (Test System: AMES SALMONELLA TYPHIMURIUM, Strain/Indicator: TA1538, Metabolic Activation: WOODCHUCK, LIVER, S-9, 3-METHYLCHOLANTHRENE, Method: STANDARD PLATE).

`OCNc1ncnc2c1ncn2[C@@H]1O[C@H](CO)[C@@H](O)[C@H]1O`: the mutagenic call is “inactive; negative” (Test System: AMES SALMONELLA TYPHIMURIUM, Strain/Indicator: TA100(TN5-1,8-DNP1011), Metabolic Activation: NONE, Method: STANDARD PLATE); “active; positive” (Test System: AMES SALMONELLA TYPHIMURIUM, Strain/Indicator: TA100(TN5-1,8-DNP1012), Metabolic Activation: NONE, Method: STANDARD PLATE); “inactive; negative” under setting [3].

`Nc1ccc(-c2cc(Cl)c(N)c(Cl)c2)cc1Cl`: the mutagenic call by setting is: (Test System: AMES SALMONELLA TYPHIMURIUM, Strain/Indicator: TA98/1,8-DNP6, Metabolic Activation: HAMSTER, LIVER, S-9, Method: PREINCUBATION) “active; positive”; (Test System: AMES SALMONELLA TYPHIMURIUM, Strain/Indicator: TA98, Metabolic Activation: HAMSTER, LIVER, S-9, Method: PREINCUBATION) “active; positive”; (Test System: AMES SALMONELLA TYPHIMURIUM, Strain/Indicator: TA98, Metabolic Activation: NONE, Method: PREINCUBATION) “active; positive”; (Test System: AMES SALMONELLA TYPHIMURIUM, Strain/Indicator: TA100, Metabolic Activation: HAMSTER, LIVER, S-9, Method: PREINCUBATION) “active; positive”.

For `NCCc1c[nH]c2ccccc12`, the mutagenic call is “inactive; negative” under setting [1]; “inactive; negative” (Test System: AMES SALMONELLA TYPHIMURIUM, Strain/Indicator: TA97A, Metabolic Activation: RAT LIVER S-9, PHENOBARBITOL/BETA-NAPHTHOFLAVONE, Method: STANDARD PLATE); “inactive; negative” under setting [2]; “inactive; negative” (Test System: AMES SALMONELLA TYPHIMURIUM, Strain/Indicator: TA98, Metabolic Activation: RAT LIVER S-9, PHENOBARBITOL/BETA-NAPHTHOFLAVONE, Method: STANDARD PLATE); “inactive; negative” (Test System: AMES SALMONELLA TYPHIMURIUM, Strain/Indicator: TA100, Metabolic Activation: NONE, Method: PREINCUBATION); “inactive; negative” under setting [3]. Also, the mutagenic call by setting is: (Test System: AMES SALMONELLA TYPHIMURIUM, Strain/Indicator: TA100, Metabolic Activation: RAT LIVER S-9, PHENOBARBITOL/BETA-NAPHTHOFLAVONE, Method: STANDARD PLATE) “inactive; negative”; under setting [8], “inactive; negative”; (Test System: AMES SALMONELLA TYPHIMURIUM, Strain/Indicator: TA1535, Metabolic Activation: RAT LIVER S-9, PHENOBARBITOL/BETA-NAPHTHOFLAVONE, Method: STANDARD PLATE) “inactive; negative”; (Test System: E.COLI, Strain/Indicator: WP2/UVRA, Metabolic Activation: NONE, Method: STANDARD PLATE) “inactive; negative”; (Test System: E.COLI, Strain/Indicator: WP2/UVRA, Metabolic Activation: RAT LIVER S-9, PHENOBARBITOL/BETA-NAPHTHOFLAVONE, Method: STANDARD PLATE) “inactive; negative”.

With `COc1cccc2c1C(=O)c1c(O)c3c(c(O)c1C2=O)C[C@@](O)(C(C)=O)C[C@@H]3O`, the mutagenic call was “active; positive” under setting [2], “active; positive” under setting [4], “inactive; negative” under setting [3] and “inactive; negative” under setting [9].

On to `CC(=O)N(CC(O)CN(C(C)=O)c1c(I)c(C(=O)NCC(O)CO)c(I)c(C(=O)NCC(O)CO)c1I)c1c(I)c(C(=O)NCC(O)CO)c(I)c(C(=O)NCC(O)CO)c1I` (configuration not stated), for which the mutagenic call under setting [2] is “inactive; negative”; the mutagenic call under setting [4] is “inactive; negative”; the mutagenic call under setting [3] was “inactive; negative”; the mutagenic call under setting [5] is “inactive; negative”; the mutagenic call under setting [8] is “inactive; negative”; the mutagenic call under setting [6] is “inactive; negative”. Moreover, the mutagenic call runs as follows: (Test System: AMES SALMONELLA TYPHIMURIUM, Strain/Indicator: TA1537, Metabolic Activation: NONE, Method: STANDARD PLATE) “inactive; negative”; (Test System: AMES SALMONELLA TYPHIMURIUM, Strain/Indicator: TA1537, Metabolic Activation: RAT, LIVER, S-9, AROCLOR 1254, Method: STANDARD PLATE) “inactive; negative”; under setting [9], “inactive; negative”; under setting [7], “inactive; negative”; (Test System: E. COLI, Strain/Indicator: WP2 UVRA, Metabolic Activation: NONE, Method: STANDARD PLATE) “inactive; negative”; (Test System: E. COLI, Strain/Indicator: WP2 UVRA, Metabolic Activation: RAT, LIVER, S-9, AROCLOR 1254, Method: STANDARD PLATE) “inactive; negative”.
